The text below walks through data of PMC7178819, “6,7-Dimethoxy-2-phenethyl-1,2,3,4-tetrahydroisoquinoline amides and corresponding ester isosteres as multidrug resistance reversers” (Journal of Enzyme Inhibition and Medicinal Chemistry, 2020).

Series [1] is described as follows: Apparent permeability (Papp) determination (BA/AB) in Caco-2 cell monolayer. The class given is in vitro ADME. The conditions noted are these: human, Caco-2 monolayer. A digest of the protocol: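 Caco-2 monolayers cultured 21 days (TEER monitored, >1000 Ω optimal); compounds added at 100 µM in HBSS to the filter well, 120 min at 37 °C, then apical and basolateral sides sampled. Papp ratio BA/AB computed; ratio >2 taken as indicating P-gp substrate.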
(Caco-2 monolayers are a common model of the intestinal barrier.)

A further series addresses T1, P-gp (Homo sapiens, UniProt P08183).
T1 construct: expressed in transfected cells; host or cells: MDCK-MDR1 (Madin-Darby Canine Kidney cells, gift of Prof. P. Borst, NKI-AVL)
The series can be described thus: ATP cell depletion (ATPlite assay) in MDCK-MDR1 cells. To be noted: Yes/No. It is filed as cell-based. A digest of the protocol: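 MDCK-MDR1 cells seeded at 20,000 per well and grown overnight were treated 2 h at 37 °C, 5% CO2 with compounds at 1 to 100 µM. After cell lysis and substrate addition, luminescence was measured following ten minutes of dark adaptation as the readout of cellular ATP.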
A general note: ATP-based viability assays read luminescence as a measure of living cells.

Series [2] can be described thus: Stability test in human plasma (LC-MS/MS). It is filed as in vitro ADME. To be noted: human, human plasma, 1 µM, 37 °C. The method, then: Each sample was prepared adding 10 µL of working solution 1 to 100 µL of tested matrix (PBS or human plasma) in micro centrifuge tubes. The obtained solutions correspond to 1 µM of analyte.
After the incubation, the samples were added with 300 µL of ISTD solution and centrifuged (room temperature for 5 min at 10,000 rpm). The supernatants were transferred in auto sampler vials and dried under a gentle stream of nitrogen.
The dried samples were dissolved in 1.0 ml of 10 mM of formic acid in mQ water: acetonitrile 80:20 solution. The obtained sample solutions were analysed by LC-MS/MS methods described in Supplementary material.
For this purpose, a series of experiments were carried out, adding a known amount of analyte in both phosphate buffer solution (PBS) and in human plasma. The samples were analysed by LC-MS/MS method operating in Multiple Reaction Monitoring (MRM) mode[55].
The analyte concentration (1 µM) used during the stability tests is generally smaller than the corresponding Michaelis–Menten constant (KM); therefore, the enzymatic degradation rate is described by a first-order kinetic. Then, by plotting the natural logarithm of the quantitative data versus the incubation time, a linear function can be used and its slope represents the degradation rate (k).

Some results are limits rather than exact numbers.

T1 sequence (P08183 whole entry): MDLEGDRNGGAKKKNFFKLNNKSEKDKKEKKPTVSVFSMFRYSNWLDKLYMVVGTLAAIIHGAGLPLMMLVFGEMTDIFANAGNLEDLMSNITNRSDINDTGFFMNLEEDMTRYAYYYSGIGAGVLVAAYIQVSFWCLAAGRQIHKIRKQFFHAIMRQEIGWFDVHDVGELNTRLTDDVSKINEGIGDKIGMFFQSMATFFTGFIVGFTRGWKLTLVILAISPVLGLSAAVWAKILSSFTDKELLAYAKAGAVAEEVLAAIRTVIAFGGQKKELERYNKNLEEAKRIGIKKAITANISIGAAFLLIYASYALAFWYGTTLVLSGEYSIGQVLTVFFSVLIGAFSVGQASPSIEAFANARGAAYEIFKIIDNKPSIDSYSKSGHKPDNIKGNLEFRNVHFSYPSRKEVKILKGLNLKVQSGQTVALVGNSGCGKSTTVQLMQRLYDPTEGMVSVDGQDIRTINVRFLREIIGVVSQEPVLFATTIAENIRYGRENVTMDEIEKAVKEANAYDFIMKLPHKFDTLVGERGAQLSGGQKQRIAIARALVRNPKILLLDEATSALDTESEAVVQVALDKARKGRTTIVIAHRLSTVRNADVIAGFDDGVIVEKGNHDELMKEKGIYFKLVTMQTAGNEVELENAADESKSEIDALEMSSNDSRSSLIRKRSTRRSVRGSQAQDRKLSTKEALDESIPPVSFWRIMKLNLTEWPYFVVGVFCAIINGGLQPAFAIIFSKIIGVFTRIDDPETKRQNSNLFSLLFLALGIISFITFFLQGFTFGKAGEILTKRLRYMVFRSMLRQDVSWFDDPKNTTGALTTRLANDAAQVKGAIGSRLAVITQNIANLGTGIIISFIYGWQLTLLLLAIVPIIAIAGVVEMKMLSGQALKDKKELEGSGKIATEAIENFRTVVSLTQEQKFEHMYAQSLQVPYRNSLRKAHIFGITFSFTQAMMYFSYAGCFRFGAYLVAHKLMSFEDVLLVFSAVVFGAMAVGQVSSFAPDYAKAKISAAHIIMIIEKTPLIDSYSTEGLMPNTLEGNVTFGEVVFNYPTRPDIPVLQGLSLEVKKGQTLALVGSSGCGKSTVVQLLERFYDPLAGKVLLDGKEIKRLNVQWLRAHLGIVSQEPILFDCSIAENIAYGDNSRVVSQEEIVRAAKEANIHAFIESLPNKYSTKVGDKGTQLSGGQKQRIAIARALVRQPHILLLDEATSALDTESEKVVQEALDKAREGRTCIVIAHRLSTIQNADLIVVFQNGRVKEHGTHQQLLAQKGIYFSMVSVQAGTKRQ

For `COc1cc2c(cc1OC)CN(CCc1ccc(NC(=O)c3ccc(OC)c(OC)c3OC)cc1)CC2` [Compound 1, N-(4–(2-(6,7-dimethoxy-3,4-dihydroisoquinolin-2(1H)-yl)ethyl)phenyl)-2,3,4-trimethoxybenzamide], in series [1], the efflux ratio at 120 min, 100 µM was found to be 7. The ATP cell depletion result at P-gp is on record as “No”. In addition, the half-life at 1 µM in series [2] was no less than 4 h.
For `COc1cc2c(cc1OC)CN(CCc1ccc(OC(=O)c3c(OC)c(OC)cc4ccccc34)cc1)CC2` [Compound 21, 4–(2-(6,7-Dimethoxy-3,4-dihydroisoquinolin-2(1H)-yl)ethyl)phenyl 2,3-dimethoxy-1-naphthoate], the efflux ratio at 120 min, 100 µM in series [1] was 5.4. For the same molecule, the ATP cell depletion result on P-gp is listed as “No”. In series [2], the half-life at 1 µM is no less than 4 h.
Taken in the same sequence, the figures for `COc1ccc(C(=O)Nc2ccc(CCN3CCc4cc(OC)c(OC)cc4C3)cc2)c(OC)c1` [Compound 3, N-(4–(2-(6,7-dimethoxy-3,4-dihydroisoquinolin-2(1H)-yl)ethyl)phenyl)-2,4-dimethoxybenzamide] were 7.4, “No” and no less than 4 h.
Taken in the same sequence, the figures for `COc1cc2c(cc1OC)CN(CCc1ccc(NC(=O)c3cccc(OC)c3OC)cc1)CC2` [Compound 5, N-(4–(2-(6,7-dimethoxy-3,4-dihydroisoquinolin-2(1H)-yl)ethyl)phenyl)-2,3-dimethoxybenzamide] were 5, “No” and no less than 4 h.
For `COc1ccc(C(=O)Oc2ccc(CCN3CCc4cc(OC)c(OC)cc4C3)cc2)c(OC)c1` [Compound 16, 4–(2-(6,7-Dimethoxy-3,4-dihydroisoquinolin-2(1H)-yl)ethyl)phenyl 2,4-dimethoxybenzoate], the efflux ratio at 120 min, 100 µM in series [1] was determined as 7.1. In addition, on P-gp, the ATP cell depletion entry is recorded as “No”. Also, the half-life at 1 µM in series [2] amounted to 1.47 ± 0.367 h.
The like results for `COc1cc2c(cc1OC)CN(CCc1ccc(NC(=O)c3c(OC)c(OC)cc4ccccc34)cc1)CC2` [Compound 8, N-(4–(2-(6,7-dimethoxy-3,4-dihydroisoquinolin-2(1H)-yl)ethyl)phenyl)-2,3-dimethoxy-1-naphthamide] were, in that order, 5.5, “No” and no less than 4 h.
Taken in the same sequence, the figures for `COc1cc2c(cc1OC)CN(CCc1ccc(OC(=O)c3ccc(OC)c(OC)c3OC)cc1)CC2` [Compound 14, 4–(2-(6,7-Dimethoxy-3,4-dihydroisoquinolin-2(1H)-yl)ethyl)phenyl 2,3,4-trimethoxybenzoate] were 9, “No” and no less than 4 h.
In the case of `COc1cc2c(cc1OC)CN(CCc1ccc(OC(=O)c3c(OC)ccc4ccccc34)cc1)CC2` [Compound 20, 4–(2-(6,7-Dimethoxy-3,4-dihydroisoquinolin-2(1H)-yl)ethyl)phenyl 2-methoxy-1-naphthoate], the efflux ratio at 120 min, 100 µM in series [1] is 4.8. In addition, the ATP cell depletion result at P-gp is “No”. In series [2], this molecule displayed a half-life at 1 µM of no less than 4 h.
As for `COc1cc2c(cc1OC)CN(CCc1ccc(OC(=O)c3cccc(OC)c3OC)cc1)CC2` [Compound 18, 4–(2-(6,7-Dimethoxy-3,4-dihydroisoquinolin-2(1H)-yl)ethyl)phenyl 2,3-dimethoxybenzoate], the efflux ratio at 120 min, 100 µM in series [1] worked out at 4.1. In addition, the ATP cell depletion result at P-gp was “No”. In series [2], the half-life at 1 µM came to 0.9 ± 0.15 h.
Taken in the same sequence, the figures for `COc1cc2c(cc1OC)CN(CCc1ccc(OC(=O)c3cccc4ccccc34)cc1)CC2` [Compound 19, 4–(2-(6,7-Dimethoxy-3,4-dihydroisoquinolin-2(1H)-yl)ethyl)phenyl 1-naphthoate] were 5.1, “No” and no less than 4 h.
The like results for `COc1cc2c(cc1OC)CN(CCc1ccc(OC(=O)c3ccccc3OC)cc1)CC2` [Compound 15, 4–(2-(6,7-Dimethoxy-3,4-dihydroisoquinolin-2(1H)-yl)ethyl)phenyl 2-methoxybenzoate] were, in that order, 5.4, “No” and 1.05 ± 0.233 h.

As a reminder, the efflux ratio is a quotient of directional permeabilities that is used to spot active efflux. One may read the half-life as the time in which the quantity being followed falls by half. High values mean slow decline, low ones rapid decline.
